Key:
C2C12 myoblasts = experiment: Oxidative stress in C2C12 cells (CellROX cytosolic superoxide, MitoSOX mitochondrial superoxide, GSH); type: cell-based
Method: C2C12 (ATCC® CRL-1772™) myoblasts maintained in DMEM supplemented with L-glutamine (2 mM), penicillin/streptomycin (1%) and 5% fetal bovine serum (FBS) were seeded either at a density of 5×10^4 cells (<50%) per well in 24-well plates or 10^4 cells in 4-well chamber slides. Cells were with L-phenylalanine (1-10 mM)+BH4 (10 μM) and incubation with increasing concentrations of N-acetylcysteine (0.5, 2.5, 5 mM) vs. vehicle overnight as indicated. Cells were analysed for oxidative stress with MitoSOX™ (mitochondrial superoxide; 5 μM, ThermoFisher Scientific), CellROX™ (cytosolic superoxide; 5 μM, ThermoFisher Scientific), gene or protein expression, or various metabolites (see below).
Levels of reduced glutathione (GSH; ThermoFisher), phenylalanine (BioVision) and tyrosine (BioVision) were determined from cells or plasma, with respective agents/kits following the manufacturer's recommendations. Specifically, GSH levels were estimated with the aid of ThiolTracker™ Violet fluorescent probe (ThermoFisher). Plasma and liver phenylalanine levels were determined using an enzyme-coupled, fluorometric method (BioVision). Briefly, samples were deproteinized via trichloroacetate precipitation, neutralised, tyrosinase-treated (to remove tyrosine that may interfere) and diluted to fit in the standard curve. Fluorescence reading took place at 587 nm after excitation at 535 nm. Levels of tyrosine in cells or conditioned media were determined after deproteinization using 10 kDa cut-off columns with an enzyme-coupled, colorimetric method with reading at 491 nm (BioVision).

[1] = test system: primary adult rat cardiomyocytes; experiment: Immunoblot of p21 in primary adult rat cardiomyocytes; type: cell-based; conditions: FIG. 1g
Method: Male Spargue Dawley rats (9 weeks, 300-350 g) were anesthetised with ketamine and xylazine (100 and 10 mg/kg, respectively) with heparin added (100 UI/kg). Hearts were excised and retrogradely perfused with an oxygenated ([…]) perfusion buffer consisting of NaCl 113 mM, KCl 4.7 mM, KH2PO4 0.6 mM, Na2HPO4 0.6 mM, MgSO4-7H2O 1.2 mM, NaHCO3 12 mM, KHCO3 10 mM, HEPES 10 mM, Taurine 30 mM, phenol red 0.032 mM, D-glucose 5.5 mM, 2,3-butanedionemonoxime 10 mM, pH 7.4) for 2 minutes to wash out the blood from the coronary arteries. Then hearts were perfused with a digestion buffer (perfusion buffer supplemented with 0.1 mg/mL liberase, 0.14 mg/mL trypsine-EDTA and 12.5 μM Ca^2+) for 10-12 minutes. Hearts were then placed in a stopping buffer (perfusion buffer supplemented with 10% NBCS and 12.5 μM Ca^2+). Atria and right ventricles were removed. Left ventricles were dissected into small fragments, then subjected to successive aspirations-reflux. Digested ventricles were filtered through a 250 μm cell strainer. […]
Cells were washed briefly with ice-cold 1×PBS, scraped in 400 μL T-PER lysis buffer (ThermoFisher) supplemented with 0.1 mM phenylmethylsulphonyl fluoride (PMSF) and protease/phosphatase inhibitor cocktail tablet (ThermoFisher). […] Protein concentrations were determined with Bradford assay (Biorad) and lysates were diluted to equal concentration with lysis buffer. […]

Row | SMILES | cytosolic superoxide levels under PA treatment (C2C12 myoblasts; PA plus co-treatment (BH4 10 μM or NAC), FIG. 1f) | reduced glutathione (GSH) levels under PA treatment (C2C12 myoblasts; PA plus co-treatment, data not shown) | PA-induced p21 protein ([1]; PA 5 mM + BH4 10 μM) | cytosolic superoxide levels (CellROX probe) (C2C12 myoblasts; as a function of PA concentration, FIG. 1e) | p21 protein ([1]; PA 5 mM, 4-hour incubation)
1 | CC(O)C(O)C1CNc2nc(N)[nH]c(=O)c2N1 (centres unmarked) [BH4, 2-amino-6-(1,2-dihydroxypropyl)-5,6,7,8-tetrahydro-3H-pteridin-4-one] | normalized | restored normal | rescue | – | –
2 | N[C@@H](Cc1ccccc1)C(=O)O [PA, (S)-2-Amino-3-phenylpropanoic acid] | – | – | – | incrementally increased | selective induction
